Source: patent US7365225B2, “Aryl dicarboxamides” (Laboratoires Serono SA, priority 2003, dated 2008)

Tests used:
Assay type in all cases: biochemical
PTP1B = target: T1, PTP1B (Homo sapiens, UniProt P18031); test: PTP Enzyme Assay (DiFMUP), PTP1B; conditions: catalytic core of human recombinant PTP; 5 μM DiFMUP; 30 minutes at room temperature; read-out: IC50 value in respect of PTP1B
T1 construct: using the catalytic core of a human recombinant PTP as the enzyme; made in house
T1 sequence (P18031 3-277 limits assumed): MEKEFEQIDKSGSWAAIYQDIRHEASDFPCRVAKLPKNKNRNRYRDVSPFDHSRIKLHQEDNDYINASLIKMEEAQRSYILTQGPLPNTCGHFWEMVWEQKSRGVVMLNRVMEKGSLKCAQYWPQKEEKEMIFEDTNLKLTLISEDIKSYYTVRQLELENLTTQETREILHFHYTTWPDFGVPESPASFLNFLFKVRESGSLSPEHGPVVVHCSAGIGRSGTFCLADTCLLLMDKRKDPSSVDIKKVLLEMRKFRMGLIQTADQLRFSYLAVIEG
Experimental: (§1) The PTP Enzyme Assay aims at determining the extent of inhibition of PTPs, e.g. of PTP1B, SHP-1, SHP-2, or GLEPP-1 in the presence of a test compound of formula (I). The inhibition is illustrated by IC50 values which denote the concentration of test compound necessary to achieve an inhibition of 50% of said PTP's using the following concentration of the PTP substrate DiFMUP: • 5 μM DiFMUP for PTP1B; • 20 μM DiFMUP for SHP-1 and SHP-2; • 30 μM DiFMUP for GLEPP-1. a) PTPs Cloning
The cloning and expression of the catalytic domain e.g. of PTP1B, may be performed as described in J. Biol. Chem. 2000, 275(13), pp 9792-9796. […]
(§2) Assays were performed in a 96 well plate format, using the catalytic core of a human recombinant PTP as the enzyme and 6,8-DiFluoro-4-MethylUmbelliferyl Phosphate (DiFMUP, Molecular Probes, D-6567) as a substrate. […] The reaction ran for 30 minutes at room temperature before reading the fluorescence intensity (integral or intensity) on a Perkin-Elmer Victor 2 spectrofluorimeter (excitation of 6,8-difluoro-7-hydroxy coumarin is at 355 nm, the emission at 460 nm, for 0.1 s). The percentage of inhibition is determined by measuring the relative fluorescence ion absence of a test compound (PTP inhibitor), i.e. with the solvent alone (5% DMSO). The IC50 values for inhibition were determined in triplicates.

GLEPP-1 = target: T2, GLEPP-1 (Homo sapiens, UniProt Q16827); test: PTP Enzyme Assay (DiFMUP), GLEPP-1; conditions: catalytic core of human recombinant PTP; 30 μM DiFMUP; 30 minutes at room temperature; read-out: IC50 value in respect of GLEPP-1
T2 construct: using the catalytic core of a human recombinant PTP as the enzyme; made in house
T2 sequence (Q16827 938-1195 limits assumed): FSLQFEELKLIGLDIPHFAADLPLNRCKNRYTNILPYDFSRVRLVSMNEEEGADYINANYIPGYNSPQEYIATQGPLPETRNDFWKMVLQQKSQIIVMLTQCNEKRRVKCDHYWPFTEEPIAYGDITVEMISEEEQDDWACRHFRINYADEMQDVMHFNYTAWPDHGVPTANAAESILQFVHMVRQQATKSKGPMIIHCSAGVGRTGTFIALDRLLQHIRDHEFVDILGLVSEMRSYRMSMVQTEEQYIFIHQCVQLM
Experimental: as §1, with “Cloning […]” for “Cloning”
as §2

SHP-1 = target: T3, SHP-1 (Homo sapiens, UniProt P29350); test: PTP Enzyme Assay (DiFMUP), SHP-1; conditions: catalytic core of human recombinant PTP; 20 μM DiFMUP; 30 minutes at room temperature; read-out: IC50 value in respect of SHP-1
T3 construct: using the catalytic core of a human recombinant PTP as the enzyme; made in house
T3 sequence (P29350 244-515 limits assumed): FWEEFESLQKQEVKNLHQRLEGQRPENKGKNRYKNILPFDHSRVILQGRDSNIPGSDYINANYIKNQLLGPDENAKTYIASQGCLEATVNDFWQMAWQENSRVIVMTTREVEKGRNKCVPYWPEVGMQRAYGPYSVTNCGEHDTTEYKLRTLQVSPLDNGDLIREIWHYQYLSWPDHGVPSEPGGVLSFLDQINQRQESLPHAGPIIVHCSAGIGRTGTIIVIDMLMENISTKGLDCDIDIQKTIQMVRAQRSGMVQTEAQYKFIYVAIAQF
Experimental: as §1, with “Cloning […]” for “Cloning”
as §2

SHP-2 = target: T4, SHP-2 (Homo sapiens, UniProt Q06124); test: PTP Enzyme Assay (DiFMUP), SHP-2; conditions: catalytic core of human recombinant PTP; 20 μM DiFMUP; 30 minutes at room temperature; read-out: IC50 value in respect of SHP-2
T4 construct: using the catalytic core of a human recombinant PTP as the enzyme; made in house
T4 sequence (Q06124 247-517 limits assumed): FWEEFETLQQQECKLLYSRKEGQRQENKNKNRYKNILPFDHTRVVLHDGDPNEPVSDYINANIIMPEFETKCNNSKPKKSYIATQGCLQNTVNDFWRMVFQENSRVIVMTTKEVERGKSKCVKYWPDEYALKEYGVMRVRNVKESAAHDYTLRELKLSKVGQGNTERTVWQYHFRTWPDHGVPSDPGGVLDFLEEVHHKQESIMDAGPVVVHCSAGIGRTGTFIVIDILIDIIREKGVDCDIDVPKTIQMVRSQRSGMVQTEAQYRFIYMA
Experimental: as §1, with “Cloning […]” for “Cloning”
as §2

IC50 (PTP1B): 1000 nM
IC50 (GLEPP-1): 1200 nM
IC50 (SHP-1): 4 µM
IC50 (SHP-2): 1900 nM
Compound: O=C(NCc1ccc(Oc2ccccc2)cc1)c1ccc(CN(C(=O)CCC2CCCC2)c2ccc(O)c(C(=O)O)c2)cc1 [Example 1, 5-[(3-cyclopentylpropanoyl)(4-{[(4-phenoxybenzyl)amino]carbonyl}benzyl)amino]-2-hydroxybenzoic acid]
